According to patent US20090325863A1, “Somatostatin analogs and IGF-I inhibition for breast cancer prevention” (priority 2008, published 2009):
“And” between values parts separate entries of the source, which are not always exact repeats. Equal entries are not always repeated. “Also recorded” adds a separate entry of the source. Marks after values point to notes of the source that are not given here. *1 amine or outer side, *2 acyl side, *3 side chain or, on linkers, in order; H or OH if unused. Where a SMILES comes first, the peptide text is derived from it. Side-chain parts run from the residue outwards. [ ]: non-standard residue; d: D form. The star is where a group is joined. Ethylenediamine = C(CN[*:2])N[*:1]; Hyp = O=C(O)[C@@H]1C[C@@H](O)CN1; Phg = N[C@H](C(=O)O)c1ccccc1; CO = O=C([*:1])[*:2]; Bn = c1ccc(C*)cc1

Experiments:
SSTR-5 = SSTR-5 (Homo sapiens, UniProt P35346); settings: cited from earlier work
Sequence of SSTR-5 (P35346 whole entry, species assumed): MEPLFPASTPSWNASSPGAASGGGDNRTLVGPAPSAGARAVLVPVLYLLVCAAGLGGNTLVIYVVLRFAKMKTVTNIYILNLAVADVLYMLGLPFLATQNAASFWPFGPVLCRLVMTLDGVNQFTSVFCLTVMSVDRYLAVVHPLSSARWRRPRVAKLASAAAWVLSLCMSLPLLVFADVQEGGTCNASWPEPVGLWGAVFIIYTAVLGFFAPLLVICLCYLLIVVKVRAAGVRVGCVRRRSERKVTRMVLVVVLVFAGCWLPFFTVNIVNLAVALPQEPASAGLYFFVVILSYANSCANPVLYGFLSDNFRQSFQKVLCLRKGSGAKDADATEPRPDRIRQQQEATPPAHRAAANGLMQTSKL

[1] = system: mammary hyperplasia induced by hGH and E2; assay: Mammary hyperplasia model induced by hGH and E2, counts in histological sections; type: in vivo, rat; settings: for Mild# (mild hyperplasia): GH + E2 control 4.2 ± 0.6, E2 1.9 ± 0.2; for Moderate# (moderate hyperplasia): GH + E2 control 5.0 ± 0.7, E2 0; for Florid# (florid hyperplasia): GH + E2 control 9.6 ± 0.1, E2 0; for Total# (total number of glands): hypophysectomized, oophorectomized female rats, hGH 600 μg + E2, 7 days, GH + E2 control 71.9 ± 5.4, E2 42.2 ± 1.4; for Florid#: GH + E2 control 10 ± 0.7
From the text: To test whether SOM230, a drug that inhibits IGF-I action on the breast, was effective, we implemented a model of hyperplasia and then determined whether the hyperplasia could be inhibited by SOM230. We administered human growth hormone (600 mcg in alzet pumps) for a week, and gave this together with estradiol (an estrogen). At the end of 7 days florid hyperplasia developed. Mammary hyperplasia was modeled by treating hypophysectomized, oophorectomized female rats with high doses human growth hormone (hGH) (600 μg in Alzet pumps) and follicular phase concentrations of estradiol (E2) administered in silastic capsules for 7 days. In the absence of hGH, these animals would not undergo mammary development. In animals receiving E2 alone, there was virtually no hyperplasia. When hGH was added to E2 there were more glands (42.2±1.4 vs. 71.9±5.4, E2 vs. E2+hGH, respectively). There was no florid hyperplasia with E2 treatment. When hGH was given also, 26.6% of the glands were hyperplastic, with 50% of those being floridly hyperplastic, 7% moderate hyperplasia and 5.9% mild hyperplasia. […] This is shown in histological sections (FIG. 1), graphically (FIG. 2) and in tabular form below (TABLE 1).
Background: Antiestrogens or aromatase inhibitors are used for breast cancer chemoprevention. These treatments cause unpleasant side effects including hot flashes and vaginal dryness. We have previously shown that IGF-I is required to permit estrogen and progesterone action in the mammary gland. […] Menopausal symptoms would not likely to occur with SOM230 since estrogen is not lowered. Material and Methods: We have approached this issue in several ways. 1) We developed a model of hyperplasia in hypophysectomized and oophorectomized female rats. Hyperplasia was induced by treatment with 600 mcg hGH and follicular phase concentrations of estradiol. Hyperplasia was assessed histologically in sections of mammary gland. 2) To assess translatability to humans we assessed cell proliferation and apoptosis in normal human breast from reduction mammoplasties and samples of usual hyperplasia. 3) We also determined availability of SST receptors in samples of atypical ductal hyperplasia and DCIS, and 4) We have begun to determine whether SOM230 will prevent hyperplasia in humans at risk for breast cancer as it does in rats.
The degree of hyperplasia was analyzed in 3 histological sections at different levels in 3 test animals given GH+E2. The different types of hyperplasia were counted. For example, the total mean number of ducts was 88.3. Of those ducts, there were 19.7 or 22.3% of total ducts that were hyperplastic. The breakdown was a mean of 10 ducts with florid hyperplasia (lumen is distended and mostly obliterated by epithelial cells), a mean of 5.3 ducts with moderate hyperplasia (an increase in cell layers to >4 cells thick), and a mean of 4.4 characterized as mild hyperplasia (no more than 4 cell thickness).
There were 4 additional treatment groups and one E2 treated control group.

[2] = system: pYIRS-1 (phosphorylated IRS-1), product of IGF-I action; assay: Immunostaining for phosphorylated IRS-1 in mammary gland, hGH+E2 model; type: in vivo, rat; settings: hGH+E2 treated animals; staining most intense with hGH+E2
From the text: FIG. 12 depicts immunostaining for pYIRS-1 (phosphorylated IRS-1) in a representative E2 treated control (upper left), an hGH+E2 treated animal (upper right), an hGH+E2+SOM230 treated animal (lower left) and an hGH+E2+tamoxifen treated animal (lower right). The intensity of staining parallels IGF-I action as phosphorylated IRS-1 is a product of IGF-I action. In this study, staining (brown color) was most intense in response to hGH+E2 and was inhibited by both SOM230 and tamoxifen. […] This reflection of inhibition of IGF-I activity also supports the greater inhibitory effect of SOM230 over that of tamoxifen.

[3] = system: pYIRS-1 (phosphorylated IRS-1); assay: pYIRS-1 staining in glands and mast cells of normally developing rats; type: in vivo, rat; settings: 28 day old female rats treated from day 21
From the text: (§1) We have found for the first time that mast cells play a role in normal mammary development. Mast cells appear around developing mammary gland structures in rats. […] The same animals when they were 21 days old were given SOM230. […] The mast cells are found directly around the developing glands in the stromal compartment.
That these mast cells are directly stimulated by IGF-I is supported by the observation that phosphorylated IRS-1 was reduced in mast cells on exposure to SOM230. The action of SOM230 in mammary gland is therefore one of IGF-I action inhibition. […] The one on the right panel is from an animal treated with SOM230. Not only was pYIRS-I reduced in glands but mast cells were reduced as well.

[4] = system: TUNEL labeled cells in mammary gland; assay: Apoptosis by TUNEL staining in mammary gland, hGH+E2 model; type: in vivo, rat; settings: for % TUNEL labeled cells, DH structure Mod + mild / % TUNEL labeled cells, Normal gland: 3 animals, 7 days; for % TUNEL labeled cells, DH structure Mod + mild: hGH + E2 control 1.9 ± 0.2 (P < 0.002); for % TUNEL labeled cells, Normal gland: hGH + E2 control 2.3 ± 0.1 (P < 0.001); for apoptosis / cell death (in words): hGH+E2 model versus hGH+E2 control
From the text: We also looked at the effect of the various treatment regimens on apoptosis. GH+E2 inhibited apoptosis, with the results are as follows. […] The percent TUNEL labeled cells is depicted in TABLE 5 below.

[5] = system: mast cells in mammary glands; assay: Mast cells and mammary development in normally developing rats treated from day 21 to 28; type: in vivo, rat; settings: for Mast cell density stromal / Mast cell density around glands: 28 day old rats treated from day 21, 3 animals; for Mast cell density stromal: normal 3.5 ± 0.8; for Mast cell density around glands: normal 11.5 ± 1.6
From the text: as §1
Overall, the number of mast cells/mm^2 was reduced by SOM230 treatment, as per TABLE 7 below. Mast cells surrounding glands and those elsewhere in the stromal compartment were both reduced.

[6] = system: hGH induced TEB formation; assay: Hyperplastic terminal endbuds (TEBs) in mammary gland whole mounts, hGH+E2 model; type: in vivo, rat; settings: for TEB area: Table 2, mean of 3 animals, hGH + E control 43.1 ± 2.9, P 0.002
From the text: At the end of 7 days one lumbar mammary gland was removed for whole mount analysis and the other for histological analysis. Hyperplastic TEBs were counted in the whole mounts. […] Representative photomicrographs of the whole mounts are provided in FIG. 5 and suppression by the different treatments is shown graphically in FIG. 6.

NCCCC[C@@H]1NC(=O)[C@@H](Cc2c[nH]c3ccccc23)NC(=O)[C@H](c2ccccc2)NC(=O)[C@@H]2C[C@@H](OC(=O)NCCN)CN2C(=O)[C@H](Cc2ccccc2)NC(=O)[C@H](Cc2ccc(OCc3ccccc3)cc2)NC1=O [SOM230] (cyclo([Hyp]([CO-Ethylenediamine])[Phg][dW]KY(Bn)F))
affinity for SSTR-5 (SSTR-5): has affinity
number of areas of florid hyperplasia ([1]; Example 3, from 18.9±1.3 with hGH and E2 (p<0.001)): 7.5±0.5
Mild# (mild hyperplasia) ([1]; Table 1, 7 days): 3.0±0.4
Mild# (mild hyperplasia) ([1]; Table 1, 7 days, listed as SOM): 3.0 ± 0.4
Moderate# (moderate hyperplasia) ([1]; Table 1, 7 days): 3.8±0.4
Moderate# (moderate hyperplasia) ([1]; Table 1, 7 days, listed as SOM): 3.8 ± 0.4
Florid# (florid hyperplasia) ([1]; Table 1, 7 days): 0.8±0.2
Florid# (florid hyperplasia) ([1]; Table 1, 7 days, listed as SOM): 0.8 ± 0.2
DH# (hyperplastic structures) ([1]; Table 1, 7 days, GH + E2 control 18.9 ± 1.3, E2 1.9 ± 0.2): 7.5 ± 0.5^b
Total# (total number of glands) ([1]; Table 1): 46.0±2.8
Total# (total number of glands) ([1]; Table 1, listed as SOM): 46.0 ± 2.8
Total# ([1]; Table 3, SOM230 30 mcg/h/kg, Octreotide 30 mcg/hr/kg, Tamoxifen 30 mg/21 day release pellet, GH + E2 control 88.3 ± 6.3): 61.4 ± 7.0
Mild# ([1]; Table 3, same doses, GH + E2 control 4.4 ± 0.6): 3.3 ± 0.3
Moderate# ([1]; Table 3, same doses, GH + E2 control 5.3 ± 0.6): 3.8 ± 0.4
Florid# ([1]; Table 3, same doses): 1.7
Florid# ([1]; Table 3, same doses, listed as SOM): 1.7 ± 0.6
DH# ([1]; Table 3, same doses, GH + E2 control 19.7 ± 1.5): 8.8 ± 0.7^b
hyperplasia / breast hyperplastic lesions (in words) ([1]; given together with hGH and estradiol, 7 days): hyperplasia was significantly inhibited; also recorded: reduction in the number and size of breast hyperplastic lesions; also recorded: reduction in hyperplasia
intensity of pYIRS-1 immunostaining [2]: inhibited
pYIRS-1 in glands and mast cells [3]: inhibited; also recorded: reduced
% TUNEL labeled cells, DH structure Mod + mild [4]: increase in apoptosis
% TUNEL labeled cells, DH structure Mod + mild ([4]; listed as SOM): 5.5 ± 0.4%
% TUNEL labeled cells, Normal gland [4]: increase in apoptosis
% TUNEL labeled cells, Normal gland ([4]; listed as SOM): 6.5 ± 0.4%
apoptosis / cell death (in words) [4]: increase in cell death; also recorded: increase in apoptosis; also recorded: more apoptosis
apoptosis / cell death (in words) ([4]; listed as SOM 230): increase in apoptosis
Mast cell density stromal [5]: reduced
Mast cell density stromal ([5]; listed as SOM): 1.1 ± 0.3^d MC#/1 mm^2
Mast cell density around glands [5]: reduced
Mast cell density around glands ([5]; listed as SOM): 3.7 ± 0.7^b MC#/1 mm^2
micro vessel density ([5]; normally developing glands versus SOM230 treated): greater in glands that were developing normally
mammary development ([5]; normally developing rats treated from day 21 to 28): inhibit mammary development
TEB area, individual animals ([6]; Table 2, animal # 1-3, hGH + E controls 48549, 38496, 42285, listed as SOM): 18816 and 13652 and 15356
TEB area [6]: reduced
TEB area ([6]; listed as SOM): 15.9 ± 1.5 (μm^2) × 10^3
number of hyperplastic TEBs in whole mounts ([6]; hGH+E2, 7 days, reduced from 86.5 (86) TEBs in hGH+E2 control): 27.5
